Test results: patent US9540702B2, “Stabilization of enzymes with stable coenzymes” (Roche Diabetes Care, Inc., priority 2009, dated 2017)

Key:
alcohol dehydrogenase = biological target: T1, alcohol dehydrogenase (Saccharomyces cerevisiae, UniProt P00330); experiment: DSC of coenzyme binding; settings: 3.8 mM ligand; 0.75M glycine sodium pyrophosphate, pH 9.0
T1 sequence (P00330 1-348): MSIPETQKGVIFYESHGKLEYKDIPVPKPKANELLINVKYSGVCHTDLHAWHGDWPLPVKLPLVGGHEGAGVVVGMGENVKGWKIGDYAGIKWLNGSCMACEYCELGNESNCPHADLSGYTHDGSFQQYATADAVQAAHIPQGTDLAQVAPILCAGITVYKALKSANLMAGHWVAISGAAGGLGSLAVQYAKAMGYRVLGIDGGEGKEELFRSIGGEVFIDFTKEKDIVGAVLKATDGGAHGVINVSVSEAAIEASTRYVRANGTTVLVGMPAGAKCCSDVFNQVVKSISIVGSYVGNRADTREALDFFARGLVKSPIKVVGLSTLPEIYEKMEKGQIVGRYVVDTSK

diaphorase [1] = experiment: Diaphorase activity extracted from triglyceride test strips after storage; assay type: biochemical; settings: triglyceride test strips stored at 32° C. and 30-70% relative air humidity
Description: A composition which, among others, contained glycerol dehydrogenase, carbaNAD, diaphorase and a tetrazolium salt was used to determine triglycerides. Test strips were obtained by applying the formulation mentioned in Table 4 to a polycarbonate foil by means of a doctor blade (layer height 80 μm) and subsequent drying, and they were stored at 32° C. and 30-70% relative air humidity.

malate dehydrogenase = settings: 3.8 mM ligand; 0.5M carbonate buffer, pH 10.0
Description: The DSC device was cleaned and calibrated according to the MicroCal handbook before carrying out the measurements in order to ensure a correct operation. Lysozyme (1 mg/ml) in 0.1 M glycine-HCl pH 2.4 was measured in duplicate as a control before and after each scan process. Measuring cells, valve and syringe were washed three times with water after every six injections. The data was analysed using the MicroClas Origin software.
In each case 0.1 M Tris buffer, pH 8.5 was used as the measurement buffer if not stated otherwise.

[2] = biological target: T2, diaphorase (from porcine heart) (Sus scrofa, UniProt P09623); experiment: Diaphorase activity in liquid reagent for lactate dehydrogenase stored at 25° C.; assay type: biochemical; settings: liquid reagent stored at 25° C.; 2 mM carbaNAD or 0.2 mM NAD; various storage times
T2 construct: 3 U/ml diaphorase (from porcine heart); from tissue; host or cells: porcine heart
T2 sequence (P09623 36-509): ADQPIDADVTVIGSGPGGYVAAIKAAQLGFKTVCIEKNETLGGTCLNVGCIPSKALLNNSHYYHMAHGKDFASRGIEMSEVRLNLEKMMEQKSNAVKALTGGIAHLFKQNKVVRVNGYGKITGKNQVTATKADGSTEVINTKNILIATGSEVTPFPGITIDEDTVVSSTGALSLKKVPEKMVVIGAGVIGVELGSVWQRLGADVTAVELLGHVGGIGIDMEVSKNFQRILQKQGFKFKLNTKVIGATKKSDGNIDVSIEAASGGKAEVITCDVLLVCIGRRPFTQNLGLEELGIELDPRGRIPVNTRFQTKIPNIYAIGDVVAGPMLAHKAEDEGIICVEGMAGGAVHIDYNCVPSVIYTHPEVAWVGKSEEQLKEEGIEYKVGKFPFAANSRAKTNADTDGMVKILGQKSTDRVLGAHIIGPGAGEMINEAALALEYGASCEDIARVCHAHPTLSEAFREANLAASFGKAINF
Description: A liquid reagent which, among others, contained diaphorase, carbaNAD, a tetrazolium salt and lactate was used to determine the activity of lactate dehydrogenase. The detection reagent which was stored in solution at 25° C. contained the following ingredients:
3 U/ml diaphorase (from porcine heart)
2 mM carbaNAD or 0.2 mM NAD
2 mM tetrazolium salt WST-3
0.1 M tricine/HCl, pH 8.8

diaphorase [3] = experiment: Diaphorase activity extracted from blood glucose test strips after storage; assay type: biochemical; settings: blood glucose test strips stored at 32° C. and 30-70% relative air humidity
Description: A composition which, among others, contained glucose dehydrogenase (GlucDH), carbaNAD, diaphorase, nitrosoaniline and phosphomolybdic acid was used to determine blood glucose. Test strips were obtained by applying a first formulation to a polycarbonate foil using a doctor blade (layer height 100 μm), drying the first layer, applying a second formulation to the first layer (doctor blade gap 30 μm), and drying the second layer. The test strips were stored at 32° C. and 30-70% relative air humidity.

[4] = biological target: T3, alcohol dehydrogenase (ADH) (Saccharomyces cerevisiae, UniProt P00330); experiment: Storage of alcohol dehydrogenase detection solution with NAD or cNAD (Tables 1 and 2); assay type: biochemical, yeast
T3 sequence (P00330 1-348): T1 sequence (P00330 1-348)
Description: cNAD or NAD was added to a detection solution containing alcohol dehydrogenase. These mixtures were stored at 2-8° C. and at 35° C. Subsequently, the stability of alcohol dehydrogenase (ADH) was checked at regular intervals and the residual activity of the enzyme was determined.
If alcohol dehydrogenase is stored together with native NAD or with cNAD for several months at 2-8° C. in a refrigerator, then one observes in the case of […] a considerable decrease in enzyme activity over the entire storage period. Whereas the difference after 2 weeks storage is still slight, there is an approximately 20% higher residual activity of alcohol dehydrogenase after 12 months storage in the presence of 16 mM cNAD compared to a corresponding solution containing 16 mM NAD as the coenzyme.
Accordingly, the residual activity of alcohol dehydrogenase can be increased somewhat in samples that have been stored for 2 weeks at 2-8° C. by increasing the concentration of cNAD.

[5] = Residual content of coenzyme in glucose detection reagent after storage at 32° C. and 85% relative air humidity; assay type: physicochemical; settings: 24 weeks storage at 32° C. and 85% relative air humidity
Description: carbaNAD (FIG. 1A) or NAD were added to the glucose-specific GlucDH. These formulations were each applied to Pokalon foils (Lonza) and, after drying, stored under warm and humid conditions (32° C., 85% relative air humidity). Subsequently, the reaction kinetics and the function curve were determined at regular intervals. In parallel at each of the measurement times a cNAD/NAD analysis and a determination of the residual activity of the enzyme were carried out.
According to this the residual content of cNAD in a glucose detection reagent is still about 80% of the initial value after 24 weeks storage (at 32° C. and 85% relative air humidity), whereas the content of NAD in a glucose detection reagent stabilized with NAD is already reduced to about 35% of the initial value after 5 weeks and, by extrapolation, is reduced to zero after about 17 weeks.

[6] = 16 mmol/l coenzyme, initial value

NC(=O)c1ccc[n+]([C@@H]2C[C@H](COP(=O)([O-])OP(=O)(O)OC[C@H]3O[C@@H](n4cnc5c(N)ncnc54)[C@H](O)[C@@H]3O)[C@@H](O)[C@H]2O)c1 [carbaNAD]
TM (alcohol dehydrogenase): 55.4 °C
ΔHcal (alcohol dehydrogenase): 310 kcal/mol
residual activity of diaphorase compared to formulation containing NAD (diaphorase [1]): considerably increased residual activity
TM (malate dehydrogenase): 43.2 °C
ΔHcal (malate dehydrogenase): 340 kcal/mol
residual activity of diaphorase compared to formulation containing NAD [2]: considerably increased residual activity
residual activity of diaphorase compared to formulation containing NAD (diaphorase [3]): considerably increased residual activity
ADH activity after 2 weeks at 2-8° C. ([4]; 16 mmol/l coenzyme, 2 weeks at 2-8° C.): 100.7 % of initial value
ADH activity after 3 months at 2-8° C. ([4]; 16 mmol/l coenzyme, 3 months at 2-8° C.): 91.3 % of initial value
ADH activity after 7.5 months at 2-8° C. ([4]; 16 mmol/l coenzyme, 7.5 months at 2-8° C.): 95.6 % of initial value
ADH activity after 10 months at 2-8° C. ([4]; 16 mmol/l coenzyme, 10 months at 2-8° C.): 88.2 % of initial value
ADH activity after 12 months at 2-8° C. ([4]; 16 mmol/l coenzyme, 12 months at 2-8° C.): 83.8 % of initial value
ADH activity % of weighed amount (initial value) [4, 6]: 71.9 % of weighed amount
ADH activity U/ml (initial value) [4, 6]: 120.2 U/ml
higher residual activity of alcohol dehydrogenase compared to 0.5 mM cNAD ([4]; 2 weeks at 35° C., 15 mM cNAD): approximately 45%
higher residual activity of alcohol dehydrogenase compared to 16 mM NAD solution ([4]; 12 months at 2-8° C., 16 mM cNAD): approximately 20%
ADH activity % of weighed amount (initial value) ([4]; Sample 1, pH 7.85, 0.5 mM cNAD): 73.7 % of weighed amount
ADH activity U/ml (initial value) ([4]; Sample 1, pH 7.85, 0.5 mM cNAD): 123.1 U/ml
ADH activity after 2 weeks at 2-8° C. ([4]; Sample 1, pH 7.85, 0.5 mM cNAD): 93.8 % of initial value
ADH activity after 2 weeks at 35° C. ([4]; Sample 1, pH 7.85, 0.5 mM cNAD): 31.1 % of initial value
ADH activity % of weighed amount (initial value) ([4]; Sample 2, pH 7.85, 1 mM cNAD): 75.3 % of weighed amount
ADH activity U/ml (initial value) ([4]; Sample 2, pH 7.85, 1 mM cNAD): 125.8 U/ml
ADH activity after 2 weeks at 2-8° C. ([4]; Sample 2, pH 7.85, 1 mM cNAD): 97.7 % of initial value
ADH activity after 2 weeks at 35° C. ([4]; Sample 2, pH 7.85, 1 mM cNAD): 45.5 % of initial value
ADH activity % of weighed amount (initial value) ([4]; Sample 3, pH 7.85, 5 mM cNAD): 74.9 % of weighed amount
ADH activity U/ml (initial value) ([4]; Sample 3, pH 7.85, 5 mM cNAD): 125.1 U/ml
ADH activity after 2 weeks at 2-8° C. ([4]; Sample 3, pH 7.85, 5 mM cNAD): 101.1 % of initial value
ADH activity after 2 weeks at 35° C. ([4]; Sample 3, pH 7.85, 5 mM cNAD): 74.1 % of initial value
ADH activity % of weighed amount (initial value) ([4]; Sample 4, pH 7.85, 15 mM cNAD): 74.1 % of weighed amount
ADH activity U/ml (initial value) ([4]; Sample 4, pH 7.85, 15 mM cNAD): 123.7 U/ml
ADH activity after 2 weeks at 2-8° C. ([4]; Sample 4, pH 7.85, 15 mM cNAD): 104.0 % of initial value
ADH activity after 2 weeks at 35° C. ([4]; Sample 4, pH 7.85, 15 mM cNAD): 77.6 % of initial value
residual content of coenzyme in glucose detection reagent [5]: about 80 % of the initial value
